Source: patent US10501454B2, “Monocyclic β-lactam-siderophore conjugate, and preparation method and use thereof” (Shanghai Institute of Materia Medica, Chinese Academy of …, priority 2016, dated 2019)
Converted amounts (≈) assume the structure as drawn. Structures can show the parent of a compound that is named as a salt.

Key:
[1] = tested on: Pseudomonas aeruginosa (4 strains); experiment: MIC, broth microdilution, normal MH medium; format: cell-based; settings: Pseudomonas aeruginosa, multidrug-resistant clinical isolates (integrator I, IMP4), read-out: Antibacterial activity MIC, Pseudomonas aeruginosa (4 strains)
Protocol: (§1) Supplier of the strains: all of the above strains were provided by Sichuan Primed Shines Bio-tech Co., Ltd. A single colony was isolated by streaking on agar plates for each strain prior to the experiment, and the cells freshly cultured at 37° C. overnight were appropriately diluted for the experiment.
(§2) Medium: MH liquid medium (OXOID).
(§3) Culture condition: cells were incubated at 35-37° C. for 16-18 h.
(§4) The broth microdilution method recommended by Clinical and Laboratory Standards Institute (CLSI), Performance Standards for Antimicrobial Susceptibility Testing; Twenty-Third Informational Supplement, M02-All, M07-A9 and M11-A8, 2013 was used to determine the MIC value of each test sample against each test strain in the normal MH medium and iron-deficient MH medium.
(§5) After diluting each sample to different concentrations with normal MH medium, 100 μl of each test sample solution at different concentrations was separately aspirated onto a 96-well sterile polystyrene plate. Drug solutions were added to the 1st to 10th well with the final concentrations of 16, 8, 4, 2, 1, 0.5, 0.25, 0.125, 0.06, and 0.03 mg/L in each well, respectively. The 11th well, as a blank control, was not added with drugs and bacteria. The 12th well, as a bacterial growth control, was added with bacteria but no drug.
(§6) The test bacterial liquid was adjusted to a bacterial suspension of 0.5 Mcfarland standard with physiological saline, and diluted with MH broth at 1:100, and then added to the drug solution so that a final concentration of the bacterial liquid was approximately 10^4 CFU/ml; 100 μl of the bacterial liquid was further added to each of the above wells (the total volume in each well is 200 μl), which was sealed and placed in a 35-37° C. incubator for 18-20 h for testing the result. The OD600 value was measured by a microplate reader, Minimal Inhibitory Concentration (MIC) of a drug is the lowest concentration of the drug which prevents growth of bacteria in the wells. 1.2.2 MIC in iron-deficient MH medium

[2] = tested on: Escherichia coli (4 strains); experiment: MIC, broth microdilution, normal MH medium; format: cell-based; settings: for MIC: Escherichia coli, clinical isolates (ESBLs), read-out: Antibacterial activity MIC, Escherichia coli (4 strains); for times more effective than BAL30072 in inhibitory activity against Escherichia coli: from MIC of Table 2
Protocol: as §1, §2, §3, §4, §5, §6

[3] = tested on: Acinetobacter baumannii (4 strains); experiment: MIC, broth microdilution, normal MH medium; format: cell-based; settings: Acinetobacter baumannii, read-out: Antibacterial activity MIC, Acinetobacter baumarmii (4 strains)
Protocol: as §1, §2, §3, §4, §5, §6

[4] = tested on: multidrug-resistant Klebsiella pneumoniae KR15-4 (KPC2); experiment: In vivo efficacy in mice systemically infected with multidrug-resistant Klebsiella pneumoniae KR15-4 (KPC2); settings: Kunming mice, intraperitoneal infection, drug s.c. 0.5 h and 4 h after infection, deaths over 7 days, Bliss method; for ED50: Klebsiella pneumoniae, read-out: ED50 Subcutaneous injection
Protocol: 4.1 Test strains: clinically isolated pathogenic multidrug-resistant Klebsiella pneumoniae KR15-4 (KPC2), provided by Sichuan Primed Shines Bio-tech Co., Ltd.
4.2 Test animals: Kunming mice, age: 4 to 5 weeks, weight: 18 to 22 g, half male, half female, SPF grade.
4.3 Test methods: Mice were randomly divided into several groups, 5 mice for each group, half male and half female, and 4 doses for each test drug: 12.5, 25, 50 and 100 mg/kg. The mice were intraperitoneally injected with 0.5 mL of 3.0×10^6 CFU/mL bacterial suspension for each mouse, and subcutaneously injected with the drug at the designed dose 0.5 h and 4 h after infection. The subcutaneous injection volume was 0.2 ml/20 g mouse weight; the number of deaths in mice was observed and recorded for 7 consecutive days. According to the number of deaths in mice, the half effective dose ED50 was calculated according to the Bliss method using the DAS 1.0 software, edited by Sun Ruiyuan et al.

[5] = tested on: Klebsiella pneumoniae (4 strains); experiment: MIC, broth microdilution, normal MH medium; format: cell-based; settings: for MIC: Klebsiella pneumoniae, multi-drug resistant clinical isolates (KPC2), read-out: Antibacterial activity MIC, Klebsiella pneumoniae (4 strains); for times more effective than BAL30072 in inhibitory activity against Klebsiella pneumoniae: from MIC of Table 2
Protocol: as §1, §2, §3, §4, §5
The OD600 value was measured by a microplate reader, Minimal Inhibitory Concentration (MIC) of a drug is the lowest concentration of the drug which prevents growth of bacteria in the wells. 1.2.2 MIC in iron-deficient MH medium

[6] = tested on: Escherichia coli ATCC 35218; experiment: MIC, broth microdilution, normal MH medium; format: cell-based; settings: Escherichia coli, ATCC35218, quality control strain, read-out: Antibacterial activity MIC, Escherichia coli ATCC 35218
Protocol: (§7) Strain for quality control: Escherichia coli ATCC35218, purchased from National Center of Clinical Laboratory.
as §2, §3, §4, §5, §6

[7] = tested on: Escherichia coli ATCC 35218; experiment: MIC, broth microdilution, iron-deficient MH medium; format: cell-based; settings: Escherichia coli, ATCC35218; iron-deficient MH medium (16 mg/L 2,2'-bipyridine); quality control strain; read-out: Antibacterial activity MIC, Escherichia coli ATCC 35218
Protocol: as §7, §2, §3, §4
(§8) BPL was added to the normal MH medium to obtain a final concentration of 16 mg/L; According to the method in Section 1.2.1, 100 μl of each test sample solution at different concentrations was aspirated to the 1st to 10th well in a 96-well sterile polystyrene plate to obtain the final drug concentrations of 16, 8, 4, 2, 1, 0.5, 0.25, 0.125, 0.06, and 0.03 mg/L, respectively. Then, 100 μl of the test bacterial liquid was added to each well (200 μl per well), and the final concentration of the bacterial liquid was approximately 10^4 CFU/ml. After sealing, it was placed in a 35-37° C. incubator for 18-20 hours for testing the result. The OD600 value was measured by a microplate reader, Minimal Inhibitory Concentration (MIC) of a drug is the lowest concentration of the drug which prevents growth of bacteria in the wells.

[8] = tested on: Klebsiella pneumoniae (4 strains); experiment: MIC, broth microdilution, iron-deficient MH medium; format: cell-based; settings: for MIC: Klebsiella pneumoniae, iron-deficient MH medium (16 mg/L 2,2'-bipyridine), multi-drug resistant clinical isolates (KPC2), read-out: Antibacterial activity MIC, Klebsiella pneumoniae (4 strains); for times more effective than BAL30072 in inhibitory activity against Klebsiella pneumonia: iron-deficient MH medium, from MIC of Table 3
Protocol: as §1, §2, §3, §4, §8

[9] = tested on: Pseudomonas aeruginosa (4 strains); experiment: MIC, broth microdilution, iron-deficient MH medium; format: cell-based; settings: Pseudomonas aeruginosa; iron-deficient MH medium (16 mg/L 2,2'-bipyridine); multidrug-resistant clinical isolates (integrator I, IMP4); read-out: Antibacterial activity MIC, Pseudomonas aeruginosa (4 strains)
Protocol: as §1, §2, §3, §4, §8

[10] = tested on: Escherichia coli (4 strains); experiment: MIC, broth microdilution, iron-deficient MH medium; format: cell-based; settings: Escherichia coli; iron-deficient MH medium (16 mg/L 2,2'-bipyridine); clinical isolates (ESBLs); read-out: Antibacterial activity MIC, Escherichia coli (4 strains)
Protocol: as §1, §2, §3, §4, §8

[11] = tested on: Acinetobacter baumannii (4 strains); experiment: MIC, broth microdilution, iron-deficient MH medium; format: cell-based; settings: Acinetobacter baumannii; iron-deficient MH medium (16 mg/L 2,2'-bipyridine); multidrug-resistant clinical isolates (integron I, OXA23); read-out: Antibacterial activity MIC, Acinetobacter baumannii (4 strains)
Protocol: as §1, §2, §3, §4, §8

SMILES | MIC [1] | MIC [2] | MIC [3] | ED50 [4] | ED50 Subcutaneous injection [4] | MIC [5] | MIC [6] | MIC [7] | MIC [8] | times more effective than BAL30072 in inhibitory activity against Klebsiella pneumonia [8] | MIC [9] | MIC [10] | MIC [11] | times more effective than BAL30072 in inhibitory activity against Escherichia coli [2] | times more effective than BAL30072 in inhibitory activity against Klebsiella pneumoniae [5]
C[C@@H](O)[C@H]1C(=O)N2C(C(=O)O)=C(S[C@@H]3CN[C@H](C(=O)N(C)C)C3)[C@H](C)[C@H]12 [meropenem, reference compound] | 32 to 64 µg/mL (≈ 83.4 to 167 µM) | 0.25 to 32 µg/mL (≈ 0.652 to 83.4 µM) | 64 µg/mL (≈ 167 µM) | > 100 mg/kg | >100 mg/kg | 32 to 64 µg/mL (≈ 83.4 to 167 µM) | 0.125 µg/mL (≈ 0.326 µM) |  |  |  |  |  |  |  | 
CC(C)C(O/N=C(\C(=O)N[C@@H]1C(=O)N(OS(=O)(=O)O)C1(C)C)c1nc(N)sc1Cl)c1cc(=O)c(O)cn1O (stereo partly drawn) [Compound 24, (3S)-3-((Z)-2-(2-amino-5-chlorothiazol-4-yl)-2-((1-(1,5-dihydroxy-4-oxo-1,4-dihydropyridin-2-yl)-2-methylpropoxy)imine)acetamido)-2,2-dimethyl-4-oxoazetidine-1-hydrogen sulfate] |  |  |  |  |  |  |  | < 0.03 µg/mL | 0.125 to 0.5 µg/mL | 128-512 times | 0.25 to 2 µg/mL | 0.06 to 0.25 µg/mL | 1 to 2 µg/mL |  | 
CC(O/N=C(\C(=O)N[C@@H]1C(=O)N(OS(=O)(=O)O)C1(C)C)c1nc(N)sc1Cl)c1cc(=O)c(O)cn1O (stereo partly drawn) [Compound 22, (3S)-3-((Z)-2-(2-amino-5-chlorothiazol-4-yl)-2-((1-(1,5-dihydroxy-4-oxo-1,4-dihydropyridin-2-yl)ethoxyl)imine)acetamido)-2,2-dimethyl-4-oxoazetidine-1-hydrogen sulfate] | 0.5 to 2 µg/mL | 0.06 to 0.5 µg/mL | 2 µg/mL |  |  | 1 µg/mL | < 0.03 µg/mL | < 0.03 µg/mL | 1 µg/mL | 64 times | 0.5 to 1 µg/mL | 0.06 to 0.25 µg/mL | 1 µg/mL | 4-16 times | 64 times
CC(C)[C@H](O/N=C(\C(=O)N[C@@H]1C(=O)N(OS(=O)(=O)O)C1(C)C)c1csc(N)n1)c1cc(=O)c(O)cn1O [Compound 28, (3S)-3-((Z)-2-(2-aminothiazol-4-yl)-2-(((S)-1-(1,5-dihydroxy-4-oxo-1,4-Dihydropyridin-2-yl)-2-methylisopropyloxy)imine)acetamido)-2,2-dimethyl-4-oxoazetidine-1-hydrogen sulfate] |  |  |  |  |  |  |  | < 0.03 µg/mL | 1 µg/mL | 64 times | 0.125 to 1 µg/mL | 0.125 to 0.25 µg/mL | 1 to 2 µg/mL |  | 
C[C@H](O/N=C(\C(=O)N[C@@H]1C(=O)N(OS(=O)(=O)O)C1(C)C)c1nc(N)sc1Cl)c1cc(=O)c(O)cn1O [Compound 26, (S)-3-((Z)-2-(2-amino-5-chlorothiazol-4-yl)-2-(((S)-1-(1,5-dihydroxy-4-oxo-1,4-dihydropyridin-2-yl)ethoxy)imine)acetamido)-2,2-dimethyl-4-oxoazetidine-1-hydrogen sulfate] | 0.5 to 1 µg/mL | 0.25 to 1 µg/mL | 1 µg/mL |  |  | 1 to 4 µg/mL | < 0.03 µg/mL | < 0.03 µg/mL | 0.5 to 4 µg/mL | 16-128 times | 0.25 to 1 µg/mL | 0.03 to 0.25 µg/mL | 0.5 to 1 µg/mL |  | 
CC(C)[C@H](O/N=C(\C(=O)N[C@@H]1C(=O)N(OS(=O)(=O)O)C1(C)C)c1nc(N)sc1Cl)c1cc(=O)c(O)cn1O [Compound 29, (3S)-3-((Z)-2-(2-amino-5-chlorothiazol-4-yl)-2-(((S)-1-(1,5-dihydroxy-4-oxo-1,4-dihydropyridin-2-yl)-2-methylpropoxy)imine)acetamido)-2,2-dimethyl-4-oxoazetidine-1-hydrogen sulfate] | 0.25 to 2 µg/mL | 1 to 2 µg/mL | 1 to 2 µg/mL |  |  | 1 to 4 µg/mL | < 0.03 µg/mL | < 0.03 µg/mL | 0.25 to 0.5 µg/mL | 128-256 times | 0.06 to 1 µg/mL | 0.125 to 1 µg/mL | 0.5 to 1 µg/mL |  | 
C[C@H]1[C@H](NC(=O)/C(=N\OC(C)(C)C(=O)O)c2csc(N)n2)C(=O)N1S(=O)(=O)O [aztreonam, reference compound] |  |  |  | > 100 mg/kg | >100 mg/kg |  | 0.5 µg/mL (≈ 1.15 µM) |  |  |  |  |  |  |  | 
CO/N=C(\C(=O)N[C@@H]1C(=O)N2C(C(=O)O)=CCS[C@H]12)c1csc(N)n1 [ceftizoxime sodium, reference compound] | > 64 µg/mL | 0.5 to 2 µg/mL | 32 to 64 µg/mL |  |  | 32 to 64 µg/mL | 0.25 µg/mL |  |  |  |  |  |  |  | 
CSCC(O/N=C(\C(=O)N[C@@H]1C(=O)N(OS(=O)(=O)O)C1(C)C)c1csc(N)n1)c1cc(=O)c(O)cn1O (stereo partly drawn) [Compound 16, (3S)-3-((Z)-2-(2-aminothiazol-4-yl)-2-((1-(1,5-dihydroxy-4-oxo-1,4-dihydropyridin-2-yl)-2-(methylthio)ethoxy)imine)acetamido)-2,2-dimethyl-4-oxoazetidine-1-hydrogen sulfate] | 0.25 to 2 µg/mL | 0.125 to 0.5 µg/mL | 1 to 2 µg/mL |  |  | 0.5 to 1 µg/mL | < 0.03 µg/mL | < 0.03 µg/mL | 0.5 to 1 µg/mL | 64-128 times | 0.125 to 1 µg/mL | 0.06 to 0.25 µg/mL | 0.5 to 1 µg/mL | 2-8 times | 64-128 times
